Legend:
Type in all cases: in vivo
[1] = test system: Polygonum convolvulus (wild buckwheat); assay: Greenhouse postemergence herbicidal effect, wild buckwheat (POLCO); conditions: 20-22 d
Source text: (§1) Greenhouse Trial Methodology—Evaluation of Postemergence Herbicidal Effect
(§2) Seeds of the desired test plant species were planted in a 90:10% v/v (volume/volume) mixture of PRO-MIX® BX (Premier Tech Horticulture, Quakertown, Pa., USA) and PROFILE® GREENS GRADE™ (Profile Products LLC, Buffalo Grove, Ill., USA) planting mixture, which typically has a pH of 5.2 to 6.2 and an organic matter content of at least 50 percent, in plastic pots with a surface area of 103.2 square centimeters (cm^2). In some aspects, to ensure good germination and healthy plants, a fungicide treatment and/or other chemical or physical treatment was applied. The plants were grown for 7-36 days (d) in a greenhouse with an approximate 14-hour (h) photo-period which was maintained at about 23° C. during the day and 22° C. during the night. Nutrients and water were added on a regular basis and supplemental lighting was provided with overhead metal halide 1000-Watt lamps as necessary. The plants were employed for testing when they reached the second or third true leaf stage.
(§3) Emulsifiable concentrates of each of each pyridine carboxylate herbicide (Compound A or Compound B) were prepared at 100 grams acid equivalent per liter (g ae/L). The emulsifiable concentrates also included a safener, cloquintocet-mexyl, at 120 grams active ingredient per liter (g ai/L). An aliquot of each emulsifiable concentrate was placed in a 25 mL glass vial and diluted with an aqueous mixture of 1.25% (v/v) ACTIROB® B esterified rapeseed oil (Bayer Crop Science, Research Triangle Park, N.C., USA) or MSO® Concentrate with LECI-TECH® methylated soybean oil (Loveland Products, Loveland, Colo., USA) to obtain concentrated stock solutions at the highest application rate for each herbicide, based upon a 12 milliliter (mL) application volume at a rate of 187 liters per hectare (L/ha). The concentrated stock solutions were further diluted with an aqueous mixture of 1.25% v/v ACTIROB® B or MSO® Concentrate with LECI-TECH® to obtain stock solutions at reduced application rates for each herbicide. Spray solutions of the herbicide combinations (Compound A or Compound B plus glyphosate or glufosinate) were prepared by adding weighed amounts or aliquots of the glyphosate or glufosinate to the stock solutions of Compound A or Compound B to form 12-mL spray solutions in two-way combinations.
(§4) The spray solutions were applied to the plant material with an overhead Mandel track sprayer equipped with 8002E nozzles calibrated to deliver 187 L/ha over an application area of 0.503 square meters (m^2) at a spray height of 18 inches (43 centimeters (cm)) above the average plant canopy. Control plants were sprayed in the same manner with the solvent blank. All pyridine carboxylate herbicide (component a) application rates are given as “g ae/ha” and all glyphosate or glufosinate (component b) application rates are given as “g ai/ha.”
(§5) The treated plants and control plants were placed in a greenhouse as described above and watered by sub-irrigation to prevent wash-off of the test compounds. After 20-22 d, the condition of the test plants as compared with that of the control plants was determined visually and scored on a scale of 0 to 100 percent where 0 corresponds to no injury and 100 corresponds to complete kill.

Kochia scoparia (kochia) = assay: Greenhouse postemergence herbicidal effect, kochia (KCHSC); conditions: 20-22 d
Source text: as §1, §2, §3, §4, §5

[2] = test system: Chenopodium album L. (common lambsquarters); assay: Greenhouse postemergence herbicidal effect, common lambsquarters (CHEAL); conditions: 20-22 d
Source text: as §1, §2, §3, §4, §5

[3] = test system: Cirsium arvense (Canadian thistle); assay: Greenhouse postemergence herbicidal effect, Canadian thistle (CIRAR); conditions: 20-22 d
Source text: as §1, §2, §3, §4, §5

[4] = test system: Brassica napus (spring rape); assay: Greenhouse postemergence herbicidal effect, spring rape (BRSNN); conditions: 20-22 d
Source text: as §1, §2, §3, §4, §5

[5] = test system: Setaria faberi (giant foxtail); assay: Greenhouse postemergence herbicidal effect, giant foxtail (SETFA); conditions: 20-22 d
Source text: as §1, §2, §3, §4, §5

[6] = test system: Abutilon theophrasti (velvetleaf); assay: Greenhouse postemergence herbicidal effect, velvetleaf (ABUTH); conditions: Example 4, 20-22 d
Source text: as §1, §2
Emulsifiable concentrates of each of each pyridine carboxylate herbicide (Compound A or Compound B) were prepared at 100 grams acid equivalent per liter (g ae/L). The emulsifiable concentrates also included a safener, cloquintocet-mexyl, at 120 grams active ingredient per liter (g ai/L). […]
as §5

[7] = test system: Viola tricolor (wild pansy); assay: Greenhouse postemergence herbicidal effect, wild pansy (VIOTR); conditions: Example 4, 20-22 d
Source text: as §1, §2, §3, §4, §5

[8] = Example 3, Compound B 7.5 g ae/ha alone
[9] = Example 3, Compound B 10 g ae/ha alone
[10] = Example 4, Compound B 7.5 g ae/ha alone
[11] = Example 4, Compound B 10 g ae/ha alone

`C#CCOC(=O)c1nc(-c2ccc3cc[nH]c3c2F)c(F)c(N)c1Cl` [Compound B, propargyl 4-amino-3-chloro-5-fluoro-6-(7-fluoro-1H-indol-6-yl)pyridine-2-carboxylate] was tested, and the “% visual injury, Obs” value [1, 8] was 73%, the “% visual injury, Obs” value [1, 9] was 80% and the “% visual injury, Obs” value [1, 10] was 73%. For the same compound, the “% visual injury, Obs” value [1, 11] was 80%, the “% visual injury, Obs” value (Kochia scoparia (kochia); [8]) was 68% and the “% visual injury, Obs” value (Kochia scoparia (kochia); [9]) was 80%. The “% visual injury, Obs” value (Kochia scoparia (kochia); [10]) was 68%, the “% visual injury, Obs” value (Kochia scoparia (kochia); [11]) was 80% and the “% visual injury, Obs” value [2, 8] was 85%. The “% visual injury, Obs” value [2, 9] was 90%, the “% visual injury, Obs” value [2, 10] was 85% and the “% visual injury, Obs” value [2, 11] was 90%. The “% visual injury, Obs” value [3, 8] was 45%, the “% visual injury, Obs” value [3, 9] was 45% and the “% visual injury, Obs” value [3, 10] was 45%. The “% visual injury, Obs” value [3, 11] was 45%, the “% visual injury, Obs” value [4, 8] was 68% and the “% visual injury, Obs” value [4, 9] was 85%. For the same compound, the “% visual injury, Obs” value [4, 10] was 68%, the “% visual injury, Obs” value [4, 11] was 85% and the “% visual injury, Obs” value [5, 8] was 70%. The “% visual injury, Obs” value [5, 9] was 55%, the “% visual injury, Obs” value [5, 10] was 70% and the “% visual injury, Obs” value [5, 11] was 55%. The “% visual injury, Obs” value ([6]; Compound B 7.5 g ae/ha alone) was 68%, the “% visual injury, Obs” value ([6]; Compound B 10 g ae/ha alone) was 68% and the “% visual injury, Obs” value ([7]; Compound B 7.5 g ae/ha alone) was 10%. For the same compound, the “% visual injury, Obs” value ([7]; Compound B 10 g ae/ha alone) was 40%.

Source: patent US20210400967A1, “COMPOSITIONS COMPRISING PYRIDINE CARBOXYLATE HERBICIDES WITH GLYPHOSATE OR GLUFOSINATE” (Corteva Agriscience LLC, priority 2018, published 2021)
